Results reported in US20050002861A1, “Enhanced scintigraphic imaging agents for imaging of infection and inflammation” (priority 2003, published 2005).
Where no end group is shown, it is not given here.

Test system: muscle tissue infected by E. coli
Assay: E. coli rabbit infection model: infection uptake and biodistribution of Tc-99m PGC's
Assay type: in vivo, New Zealand White (NZW) rabbits
Conditions: only some lysines replaced by arginine; compared with Tc-99m P1827H
Excerpt: In yet another aspect of the present invention, the compositions of the invention are capable of achieving a favorable biodistribution that is characterized by a specific accumulation at the site to be imaged, e.g. in an infected muscle, and at the same time a low concentration in uninfected areas, such as normal muscle or blood. The biodistribution of the radiolabeled compositions of the invention may be expressed by means of an image contrast ratio. The image contrast ratio can be determined as the ratio Imax(infected muscle)/Imax(control muscle), hereinafter referred to as Imax:C, i.e., the maximum radioactivity accumulated in an infected muscle sample versus the maximum radioactivity accumulated in a control, i.e., uninfected, muscle sample. The radioactivity is measured as % of injected dose per gram of tissue/blood, i.e., % ID/g. For the determination of Imax values (and Iavg values; see below), the tissue or blood samples are divided into six parts of equal size/weight and the radioactivity in each of the six samples is counted. The sample with the highest radioactivity is used for the Imax value (the average of all six samples was used for Iavg). Imax (and Iavg) values are expressed as % ID/g. […]

Row | Substance | improvement over Tc-99m P1827H
1 | Ac-KKKKKCGCGGPLYRRIIRRLLES (cysteine pairing not given here) [P1829] | no significant improvement
2 | Ac-RRRRRCGCGGPLYKKIIKKLLES (cysteine pairing not given here) [P1828] | no significant improvement
